From BindingDB's records for doi:10.1016/j.bmcl.2004.08.063 (Abbott Laboratories, 2004)

Tests used:
[1] = molecular target: T1, Tyrosine-protein phosphatase non-receptor type 2 (Homo sapiens, UniProt P17706); assay: PTP1B and TCPTP Inhibition Assay; settings: pH 7.5; 22 °C
T1 sequence (P17706 whole entry): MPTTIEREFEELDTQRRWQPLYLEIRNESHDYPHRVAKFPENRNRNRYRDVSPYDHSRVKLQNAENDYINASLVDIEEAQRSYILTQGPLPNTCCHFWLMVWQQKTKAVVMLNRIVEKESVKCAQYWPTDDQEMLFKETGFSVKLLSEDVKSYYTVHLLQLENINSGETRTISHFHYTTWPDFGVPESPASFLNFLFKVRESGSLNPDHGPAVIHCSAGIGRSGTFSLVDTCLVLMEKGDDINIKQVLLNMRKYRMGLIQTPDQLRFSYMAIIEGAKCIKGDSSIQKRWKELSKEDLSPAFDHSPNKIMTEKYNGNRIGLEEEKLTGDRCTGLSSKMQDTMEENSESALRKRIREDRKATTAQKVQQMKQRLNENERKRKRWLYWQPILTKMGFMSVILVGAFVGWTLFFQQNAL
Description: (§1) For each concentration of test compound or DMSO control, the initial rates were used to fit the rectangular hyperbola of Michaelis-Menten by nonlinear regression analysis. The ratio of the apparent Km/Vmax vs inhibitor concentration was plotted, and the Ki was calculated by linear regression to be the negative X-intercept.

[2] = molecular target: T2, Tyrosine-protein phosphatase non-receptor type 1 [1-298] (Homo sapiens, UniProt P18031); assay: PTP1B and TCPTP Inhibition Assay; settings: pH 7.5; 22 °C
T2 construct: 1-298
T2 sequence (P18031 whole entry): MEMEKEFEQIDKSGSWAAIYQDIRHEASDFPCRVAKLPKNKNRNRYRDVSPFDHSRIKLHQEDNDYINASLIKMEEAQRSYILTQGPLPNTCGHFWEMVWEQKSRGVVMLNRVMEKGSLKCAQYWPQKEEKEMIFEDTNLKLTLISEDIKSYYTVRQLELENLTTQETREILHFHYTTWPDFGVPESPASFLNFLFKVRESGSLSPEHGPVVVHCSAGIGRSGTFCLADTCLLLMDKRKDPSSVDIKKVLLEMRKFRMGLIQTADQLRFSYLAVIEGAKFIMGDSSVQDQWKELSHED
Description: as §1

Ki [1] [µM]	Ki [2] [µM]	SMILES
> 30		COC(=O)c1c(O)cccc1OC/C=C/c1cccc(-c2onc(C(=O)O)c2N)c1 [4-amino-5-{3-[(1E)-3-[3-hydroxy-2-(methoxycarbonyl)phenoxy]prop-1-en-1-yl]phenyl}-1,2-oxazole-3-carboxylic acid]
	23	COC(=O)c1c(O)cccc1OCC1CC1c1cccc(-c2cc(C(=O)O)no2)c1 (configuration not stated) [5-(3-{2-[3-hydroxy-2-(methoxycarbonyl)phenoxymethyl]cyclopropyl}phenyl)-1,2-oxazole-3-carboxylic acid]
